Assay results: patent publication US20250270213A1, “PI3Ka INHIBITORS” (Synnovation Therapeutics, Inc., priority 2022, published 2025)

System: T47D (PIK3CA H1047R) cells
Experiment: pS473 AKT assay with 2.5% FBS, T47D cells
Format: cell-based
Details: Homo sapiens, pSer473 AKT, DMEM with 2.5% FBS, 2 h treatment, read-out: T47D_IC50
Procedure, shortened: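 T47D (PIK3CA H1047R) cells were switched to DMEM with 2.5% FBS and exposed to compounds for 2 h. After paraformaldehyde fixation, pSer473 AKT was detected by in-cell ELISA (rabbit primary, HRP anti-rabbit secondary, chemiluminescence); IC50 values were fitted from the concentration series.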

Structure (SMILES) | IC50 [nM]
Cc1cc(C(C)Nc2ccc(Cl)nc2-c2ncn(C)n2)c2c(c1)c(=O)n(CC(F)F)c1c2cnn1CCN1CCn2ncnc2C1 (centres unmarked) [Example 268, 9-(1-((6-chloro-2-(1-methyl-1H-1,2,4-triazol-3-yl)pyridin-3-yl)amino)ethyl)-4-(2,2-difluoroethyl)-3-(2-(5,6-dihydro-[1,2,4]triazolo[1,5-a]pyrazin-7(8H)-yl)ethyl)-7-methyl-3,4-dihydro-5H-pyrazolo[3,4-c]isoquinolin-5-one] | < 1000
Cc1cc(C(C)Nc2ccc(Cl)nc2-c2nnn(C)n2)c2c(c1)c(=O)n1c3c2cnn3C(CO)CC1 (centres unmarked) [Example 285, 10-(1-((6-chloro-2-(2-methyl-2H-tetrazol-5-yl)pyridin-3-yl)amino)ethyl)-3-(hydroxymethyl)-8-methyl-4,5-dihydro-3H,6H-2,2a,5a-triazaaceanthrylen-6-one] | < 1000
Cc1cc(C(C)Nc2ccc(Cl)nc2-c2ncn(C)n2)c2c(c1)c(=O)n1c3c2cnn3C(CO)CC1 (centres unmarked) [Example 284, 10-(1-((6-Chloro-2-(1-methyl-1H-1,2,4-triazol-3-yl)pyridin-3-yl)amino)ethyl)-3-(hydroxymethyl)-8-methyl-4,5-dihydro-3H,6H-2,2a,5a-triazaaceanthrylen-6-one] | < 1000
Cc1cc(C(C)Nc2ccc(Cl)nc2-c2cnn(C3CN(C)C3)c2)c2c(c1)c(=O)n1c3c2cnn3CCC1 (centres unmarked) [Compound 304, 10-(1-((6-chloro-2-(1-(1-methylazetidin-3-yl)-1H-pyrazol-4-yl)pyridin-3-yl)amino)ethyl)-8-methyl-4,5-dihydro-3H,6H-2,2a,5a-triazaaceanthrylen-6-one] | < 1000
CCn1ncc2c3c(C(C)Nc4ccc(Cl)nc4-c4cnn(C5CCN(C)CC5)c4)cc(C)cc3c(=O)n(C)c21 (centres unmarked) [Compound 79, 9-(1-((6-Chloro-2-(1-(1-methylpiperidin-4-yl)-1H-pyrazol-4-yl)pyridin-3-yl)amino)ethyl)-3-ethyl-4,7-dimethyl-3,4-dihydro-5H-pyrazolo[3,4-c]isoquinolin-5-one] | < 1000
CCn1ncc2c3c(C(C)Nc4ccc(Cl)nc4-c4ncn(C)n4)cc(C)cc3c(=O)n(C3CCOC3)c21 (centres unmarked) [Example 223, 9-[1-[[6-Chloro-2-(1-methyl-1,2,4-triazol-3-yl)-3-pyridyl]amino]ethyl]-3-ethyl-7-methyl-4-tetrahydrofuran-3-yl-pyrazolo[3,4-c]isoquinolin-5-one] | < 1000
CC(=O)N1CCC(n2ncc3c4c(C(C)Nc5ccc(Cl)nc5-c5ccc(=O)n(C)c5)cc(C)cc4c(=O)n(C)c32)CC1 (centres unmarked) [Example 187, 3-(1-acetylpiperidin-4-yl)-9-(1-((6-chloro-1′-methyl-6′-oxo-1′,6′-dihydro-[2,3′-bipyridin]-3-yl)amino)ethyl)-4,7-dimethyl-3,4-dihydro-5H-pyrazolo[3,4-c]isoquinolin-5-one] | < 1000
Cc1cc(C(C)Nc2ccc(Cl)nc2-c2noc(=O)[nH]2)c2c(c1)c(=O)n(C)c1c2cnn1C1CCN(C)CC1 (centres unmarked) [Compound 164, 3-[6-chloro-3-[1-[4,7-dimethyl-3-(1-methyl-4-piperidyl)-5-oxo-pyrazolo[3,4-c]isoquinolin-9-yl]ethylamino]-2-pyridyl]-4H-1,2,4-oxadiazol-5-one] | < 1000
CC(Nc1ccc(Cl)nc1-c1noc(=O)[nH]1)c1cc(Cl)cc2c(=O)n(C)c3c(cnn3CC3CC3)c12 (centres unmarked) [Compound 64, 3-(6-Chloro-3-((1-(7-chloro-3-(cyclopropylmethyl)-4-methyl-5-oxo-4,5-dihydro-3H-pyrazolo[3,4-c]isoquinolin-9-yl)ethyl)amino)pyridin-2-yl)-1,2,4-oxadiazol-5(4H)-one] | < 1000
CCn1ncc2c3c(C(C)Nc4ccc(Cl)nc4-c4ncn(C)n4)cc(C)cc3c(=O)n(C)c21 (centres unmarked) [Example 228, 9-(1-((6-chloro-2-(1-methyl-1H-1,2,4-triazol-3-yl)pyridin-3-yl)amino)ethyl)-3-ethyl-4,7-dimethyl-3,4-dihydro-5H-pyrazolo[3,4-c]isoquinolin-5-one] | < 1000
Cc1cc(C(C)Nc2ccc(Cl)nc2-c2ncn(C)n2)c2c(c1)c(=O)n(C)c1c(-c3cccnc3C)ncn21 (centres unmarked) [Compound 113, 9-(1-((6-chloro-2-(1-methyl-1H-1,2,4-triazol-3-yl)pyridin-3-yl)amino)ethyl)-4,7-dimethyl-3-(2-methylpyridin-3-yl)imidazo[1,5-a]quinazolin-5(4H)-one] | < 1000
Cc1cc(C(C)Nc2ccc(C)nc2-c2cnn(C3CC3)c2)c2c(c1)c(=O)n1c3c2cnn3CCC1 (centres unmarked) [Compound 321, 10-(1-((2-(1-cyclopropyl-1H-pyrazol-4-yl)-6-methylpyridin-3-yl)amino)ethyl)-8-methyl-4,5-dihydro-3H,6H-2,2a,5a-triazaaceanthrylen-6-one] | < 1000
CCn1ncc2c3c(C(C)Nc4ccc(Cl)nc4-c4ncn(C)n4)cc(C)cc3c(=O)n(CCO)c21 (centres unmarked) [Example 224, 9-[1-[[6-Chloro-2-(1-methyl-1,2,4-triazol-3-yl)-3-pyridyl]amino]ethyl]-3-ethyl-4-(2-hydroxyethyl)-7-methyl-pyrazolo[3,4-c]isoquinolin-5-one] | < 1000
CNC(=O)c1ccc(-c2nc(Cl)ccc2NC(C)c2cc(C)cc3c(=O)n(C)c4c(cnn4CCO)c23)cc1F (centres unmarked) [Example 243, 4-(6-chloro-3-((1-(3-(2-hydroxyethyl)-4,7-dimethyl-5-oxo-4,5-dihydro-3H-pyrazolo[3,4-c]isoquinolin-9-yl)ethyl)amino)pyridin-2-yl)-2-fluoro-N-methylbenzamide] | < 1000

Now from value to compound:

IC50 [nM] | Structure (SMILES)
< 1000 | Cc1cc(C(C)Nc2ccc(Cl)nc2-c2c[nH]nc2C)c2c(c1)c(=O)n1c3c2cnn3C(CO)CC1 (centres unmarked) [Example 288, 10-(1-((6-chloro-2-(3-methyl-1H-pyrazol-4-yl)pyridin-3-yl)amino)ethyl)-3-(hydroxymethyl)-8-methyl-4,5-dihydro-3H,6H-2,2a,5a-triazaaceanthrylen-6-one]
< 1000 | Cc1cc(C(C)Nc2ccc(Cl)nc2-c2ccnc(N(C)C)c2)c2c(c1)c(=O)n1c3c2cnn3CCC1 (centres unmarked) [Compound 313, 10-(1-((6-chloro-2′-(dimethylamino)-[2,4′-bipyridin]-3-yl)amino)ethyl)-8-methyl-4,5-dihydro-3H,6H-2,2a,5a-triazaaceanthrylen-6-one]
< 1000 | Cc1cc(C(C)Nc2ccc(Cl)nc2-c2cnn(C)c2)c2c(c1)c(=O)n(C)c1c(C3CCN(C)CC3)ncn21 (centres unmarked) [Compound 134, 9-(1-((6-Chloro-2-(1-methyl-1H-pyrazol-4-yl)pyridin-3-yl)amino)ethyl)-4,7-dimethyl-3-(1-methylpiperidin-4-yl) imidazo[1,5-a]quinazolin-5(4H)-one]
< 1000 | Cc1cc(C(C)Nc2ccc(C)nc2-c2cnn(C)c2)c2c(c1)c(=O)n(C)c1c2cnn1C1CCN(S(C)(=O)=O)CC1 (centres unmarked) [Example 189, 4,7-dimethyl-9-(1-((6-methyl-2-(1-methyl-1H-pyrazol-4-yl)pyridin-3-yl)amino)ethyl)-3-(1-(methylsulfonyl)piperidin-4-yl)-3,4-dihydro-5H-pyrazolo[3,4-c]isoquinolin-5-one]
< 1000 | CNC(=O)c1ccc(-c2nc(Cl)ccc2NC(C)c2cc(C)cc3c(=O)n(C)c4c(cnn4CCO)c23)cn1 (centres unmarked) [Example 253, 5-[6-Chloro-3-[1-[3-(2-hydroxyethyl)-4,7-dimethyl-5-oxo-pyrazolo[3,4-c]isoquinolin-9-yl]ethylamino]-2-pyridyl]-N-methyl-pyridine-2-carboxamide]
< 1000 | CCn1ncc2c3c(C(C)Nc4ccccc4C(=O)O)cc(C)cc3c(=O)n(C)c21 (centres unmarked) [Compound I-18, 2-((1-(3-Ethyl-4,7-dimethyl-5-oxo-4,5-dihydro-3H-pyrazolo[3,4-c]isoquinolin-9-yl)ethyl)amino)benzoic acid]
< 1000 | Cc1cc(C(C)Nc2ccc(Cl)nc2-c2cnn(C)c2)c2c(c1)c(=O)n(C)c1c2cnn1C1CCN(S(=O)(=O)C2CC2)CC1 (centres unmarked) [Example 185, 9-[1-[[6-chloro-2-(1-methylpyrazol-4-yl)-3-pyridyl]amino]ethyl]-3-(1-cyclopropylsulfonyl-4-piperidyl)-4,7-dimethyl-pyrazolo[3,4-c]isoquinolin-5-one]
< 1000 | Cc1cc(C(C)Nc2ccc(Cl)nc2-c2ncn(C)n2)c2c(c1)c(=O)n(C)c1c2cnn1C1CN(C[C@H](C)O)C1 (stereo partly drawn) [Compound 91, 9-(1-((6-chloro-2-(1-methyl-1H-1,2,4-triazol-3-yl)pyridin-3-yl)amino)ethyl)-3-(1-((S)-2-hydroxypropyl)azetidin-3-yl)-4,7-dimethyl-3,4-dihydro-5H-pyrazolo[3,4-c]isoquinolin-5-one]
< 1000 | Cc1cc(C(C)Nc2ccc(Cl)nc2C(=O)O)c2c(c1)c(=O)n(C)c1nn(-c3ccccc3C)cc21 (centres unmarked) [Compound I-31, 6-Chloro-3-((1-(4,7-dimethyl-5-oxo-2-(o-tolyl)-4,5-dihydro-2H-pyrazolo[3,4-c]isoquinolin-9-yl)ethyl)amino)picolinic acid]
< 1000 | Cc1cc(C(C)Nc2ccc(C)nc2-c2noc(=O)[nH]2)c2c(c1)c(=O)n1c3c2cnn3C(C)CC1 (centres unmarked) [Compound 325, 3-(3-((1-(3,8-Dimethyl-6-oxo-4,5-dihydro-3H,6H-2,2a,5a-triazaaceanthrylen-10-yl)ethyl)amino)-6-methylpyridin-2-yl)-1,2,4-oxadiazol-5(4H)-one]
< 1000 | [2H]C([2H])([2H])n1c(=O)c2cc(C)cc(C(C)Nc3ccc(Cl)nc3-c3cnn(C)c3)c2c2cnn(C3CCN(C(=O)c4ccnn4C)C3)c21 (centres unmarked) [Compound 156, 9-(1-((6-chloro-2-(1-methyl-1H-pyrazol-4-yl)pyridin-3-yl)amino)ethyl)-7-methyl-4-(methyl-d3)-3-(1-(1-methyl-1H-pyrazole-5-carbonyl)pyrrolidin-3-yl)-3,4-dihydro-5H-pyrazolo[3,4-c]isoquinolin-5-one]
< 1000 | CNC(=O)c1ccc(-c2nc(Cl)ccc2NC(C)c2cc(C)cc3c(=O)n4c5c(cnn5CCC4)c23)cc1F (centres unmarked) [Compound 309, 4-(6-chloro-3-((1-(8-methyl-6-oxo-4,5-dihydro-3H,6H-2,2a,5a-triazaaceanthrylen-10-yl)ethyl)amino)pyridin-2-yl)-2-fluoro-N-methylbenzamide]
